Read-outs that look alike come from different tables or passages of the source.
Columns and labels:
MOP receptor [1] = biological target: T1, MOP receptor (Rattus norvegicus, UniProt P33535); experiment: Radioligand binding assay, MOP receptor, rat brain membranes ([3H]DAMGO)
T1 construct: from tissue; host or cells: Sprague-Dawley rat brain membranes

DOP receptor [2] = biological target: T2, DOP receptor (Rattus norvegicus, UniProt P33533); experiment: Radioligand binding assay, DOP receptor, rat brain membranes ([3H][Ile5,6]deltorphin II); settings: for Selectivity ratio DOP/MOP: Ki ratio, rat brain membranes
T2 construct: from tissue; host or cells: Sprague-Dawley rat brain membranes
T2 sequence (P33533 whole entry): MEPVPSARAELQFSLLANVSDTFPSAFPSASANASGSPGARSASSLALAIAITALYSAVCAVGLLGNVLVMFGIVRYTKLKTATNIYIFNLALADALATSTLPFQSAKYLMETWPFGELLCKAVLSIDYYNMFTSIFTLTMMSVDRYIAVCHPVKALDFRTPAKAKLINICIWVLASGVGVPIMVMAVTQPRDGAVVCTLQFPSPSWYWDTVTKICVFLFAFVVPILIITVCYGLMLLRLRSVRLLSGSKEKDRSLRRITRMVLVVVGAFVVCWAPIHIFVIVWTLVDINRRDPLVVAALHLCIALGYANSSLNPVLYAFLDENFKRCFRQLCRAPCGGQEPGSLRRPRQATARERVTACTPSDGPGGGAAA

KOP receptor [3] = biological target: T3, KOP receptor (Rattus norvegicus, UniProt P34975); experiment: Radioligand binding assay, KOP receptor, rat brain membranes ([3H]U69,593); settings: for Selectivity ratio KOP/MOP: Ki ratio, rat brain membranes
T3 construct: from tissue; host or cells: Sprague-Dawley rat brain membranes
T3 sequence (P34975 whole entry): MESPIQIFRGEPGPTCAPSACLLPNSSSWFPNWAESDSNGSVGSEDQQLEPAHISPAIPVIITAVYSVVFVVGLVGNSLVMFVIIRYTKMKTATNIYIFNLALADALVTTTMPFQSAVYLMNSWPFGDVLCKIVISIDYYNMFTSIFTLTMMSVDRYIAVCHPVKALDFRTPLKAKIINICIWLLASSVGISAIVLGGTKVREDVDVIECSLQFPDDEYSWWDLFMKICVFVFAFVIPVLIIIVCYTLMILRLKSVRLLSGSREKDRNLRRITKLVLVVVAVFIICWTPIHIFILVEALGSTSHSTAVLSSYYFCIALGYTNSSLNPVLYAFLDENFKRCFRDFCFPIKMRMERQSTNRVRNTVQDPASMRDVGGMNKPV

mice [4] = experiment: Hot-plate test; assay type: in vivo; settings: s.c.; for ED50: Mus musculus, sc, 0.5 h, hot-plate test, 30 min after dosing, read-out: ED50 (95% CL) HP
mice [5] = experiment: Tail-flick test; assay type: in vivo; settings: s.c.; for ED50: Mus musculus, sc, 20 min, tail-flick test, 20 min after dosing, read-out: ED50 (95% CL) TF
mice [6] = experiment: PPQ abdominal stretching test; assay type: in vivo; settings: for ED50: Mus musculus, sc, PPQ abdominal stretching test, read-out: ED50 (95% CL) PPQ; for Times more active than oxycodone (antinociceptive potency): maximum over hot-plate, tail-flick and PPQ assays
human MOP receptors [7] = biological target: T4, human MOP receptors (Homo sapiens, UniProt P35372); experiment: [35S]GTPγS functional assay in CHOhMOP cell membranes; assay type: biochemical; parameters: expressed in transfected cells; host or cells: CHO cells; settings: for Emax: read-out: [35S]GTPγS functional assay Emax
T4 sequence (P35372 whole entry): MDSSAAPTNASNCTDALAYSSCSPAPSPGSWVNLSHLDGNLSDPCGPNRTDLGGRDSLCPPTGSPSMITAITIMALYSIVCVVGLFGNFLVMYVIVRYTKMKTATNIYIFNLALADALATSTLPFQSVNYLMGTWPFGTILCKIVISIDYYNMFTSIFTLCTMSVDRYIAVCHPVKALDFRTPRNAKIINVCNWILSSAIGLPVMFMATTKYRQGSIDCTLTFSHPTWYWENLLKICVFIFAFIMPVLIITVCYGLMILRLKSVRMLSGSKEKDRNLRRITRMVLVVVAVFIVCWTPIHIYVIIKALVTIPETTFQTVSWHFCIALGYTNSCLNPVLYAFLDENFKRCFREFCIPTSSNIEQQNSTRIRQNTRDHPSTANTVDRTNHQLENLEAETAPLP

human MOP receptors [8] = biological target: T4, human MOP receptors; experiment: Calcium mobilization assay in CHOhMOP cells expressing Gαqi5; assay type: cell-based; parameters: expressed in transfected cells; host or cells: CHO cells stably co-expressing Gαqi5; settings: for Emax: read-out: Calcium mobilization assay Emax
MOP receptor [9] = biological target: T1, MOP receptor; settings: read-out: Ki MOP; cited from earlier work
DOP receptor [10] = biological target: T2, DOP receptor; settings: cited from earlier work; for Ki: read-out: Ki DOP
KOP receptor [11] = biological target: T3, KOP receptor; settings: cited from earlier work; for Ki: read-out: Ki KOP
mice [12] = test system: mice; parameters: method as in PMID 16033285; settings: s.c., hot-plate test, ref [30]; cited from earlier work
mice [13] = test system: mice; parameters: method as in PMID 16033285; settings: s.c., tail-flick test, ref [30]; cited from earlier work
mice [14] = test system: mice; parameters: method as in PMID 16033285; settings: s.c., PPQ abdominal stretching test, ref [30]; cited from earlier work
[15] = biological target: T5, recombinant rat MOP receptor expressed in C6 glioma cells (Rattus norvegicus, UniProt P33535); experiment: Binding assay in C6rMOP cell membranes ([3H]diprenorphine)
T5 construct: expressed in transfected cells
T5 sequence (P33535 whole entry): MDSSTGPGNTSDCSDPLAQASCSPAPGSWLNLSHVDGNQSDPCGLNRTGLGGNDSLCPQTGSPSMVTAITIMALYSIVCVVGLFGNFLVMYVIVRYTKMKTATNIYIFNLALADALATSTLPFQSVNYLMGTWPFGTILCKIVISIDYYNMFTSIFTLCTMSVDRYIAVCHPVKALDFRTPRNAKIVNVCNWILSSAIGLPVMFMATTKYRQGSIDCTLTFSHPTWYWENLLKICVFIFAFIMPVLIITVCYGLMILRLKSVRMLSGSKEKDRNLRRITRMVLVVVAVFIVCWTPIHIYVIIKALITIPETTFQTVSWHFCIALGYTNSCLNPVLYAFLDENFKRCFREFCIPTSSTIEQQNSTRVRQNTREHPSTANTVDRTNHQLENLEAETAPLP

[16] = biological target: T6, rat DOP receptors (C6rDOP) (Rattus norvegicus, UniProt P33533); experiment: Binding assay in C6rDOP cell membranes ([3H]diprenorphine)
T6 construct: expressed in transfected cells
T6 sequence (P33533 whole entry): as the sequence (P33533 whole entry) above

[17] = biological target: T7, human KOP receptors (CHOhKOP) (Homo sapiens, UniProt P41145); experiment: Binding assay in CHOhKOP cell membranes ([3H]diprenorphine)
T7 construct: expressed in transfected cells
T7 sequence (P41145 whole entry): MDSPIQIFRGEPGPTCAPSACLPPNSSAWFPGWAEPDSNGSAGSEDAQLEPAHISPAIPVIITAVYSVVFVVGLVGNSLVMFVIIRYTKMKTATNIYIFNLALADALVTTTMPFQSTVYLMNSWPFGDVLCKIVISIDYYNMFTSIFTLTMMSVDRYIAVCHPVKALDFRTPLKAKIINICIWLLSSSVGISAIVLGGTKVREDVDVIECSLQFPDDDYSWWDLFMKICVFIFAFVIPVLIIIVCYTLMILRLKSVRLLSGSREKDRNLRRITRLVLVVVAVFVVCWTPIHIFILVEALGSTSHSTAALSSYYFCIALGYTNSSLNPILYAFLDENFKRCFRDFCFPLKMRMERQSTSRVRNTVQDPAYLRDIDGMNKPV

[18] = test system: human MOP receptor in CHO cells; parameters: method as in PMID 14600248; settings: CHOhMOP, Thompson et al.; ref [35]; read-out: [35S]GTPγS binding EC50; cited from earlier work
[19] = test system: C6rMOP cells (rat MOP receptor); parameters: method as in PMID 16291875; settings: ref [36], read-out: Potency EC50; cited from earlier work
human MOP receptor = test system: human MOP receptor; parameters: method as in PMID 22002663; settings: HEK293 cells co-expressing human MOP receptor and Gαqi3, ref [37], cited from earlier work
MOP receptor [20] = test system: MOP receptor; parameters: method as in PMID 15857143; settings: ref [13]; cited from earlier work
animals = settings: ref [14]; cited from earlier work
[21] = absolute stimulation, set as 100%

T1 sequence (P33535 whole entry): as the sequence (P33535 whole entry) above

Row | Structure (SMILES) | Ki (MOP receptor [1]) | Ki (DOP receptor [2]) | Selectivity ratio DOP/MOP (DOP receptor [2]) | Ki (KOP receptor [3]) | Selectivity ratio KOP/MOP (KOP receptor [3]) | ED50 (mice [4]) | ED50 (mice [5]) | ED50 (mice [6]) | EC50 (human MOP receptors [7]) | Emax (human MOP receptors [7]) | EC50 (human MOP receptors [8]) | Times greater potency than oxycodone and 14-OMC, calcium mobilization (human MOP receptors [8]; CHOhMOP Gαqi5 cells) | Emax (human MOP receptors [8]) | Ki (DOP receptor [10]) | Ki (KOP receptor [11]) | ED50 (95% CL) HP (mice [12]) | ED50 (95% CL) TF (mice [13]) | ED50 (95% CL) PPQ (mice [14]) | also measured
1 | COc1ccc2c3c1OC1C(C#N)=CCC4(OC)C(C2)N(C)CCC314 (stereo not shown) [compound 6] | 7.39 ± 0.34 nM | 239 ± 40 nM | 32 | 194 ± 68 nM | 26 | 0.089 mg/kg | 0.12 mg/kg | 0.003 mg/kg | 25.1 ± 3.6 nM | 121 ± 27% | 173 ± 21 nM | up to 10 times | 84 ± 10% |  |  |  |  |  | Increase in binding to the MOP receptor vs 6-keto counterpart 14-OMC (MOP receptor [1]; rat brain membranes): about 5 times; Times more potent than 14-OMC, hot-plate (mice [4]): 11 times; Times more potent than analogue 3, hot-plate (mice [4]): ca. 3 times; Times less potent than analogue 5, tail-flick (mice [5]): 3 times; Times more potent than 14-OMC, tail-flick (mice [5]): 7 times; Times more potent than analogue 3, tail-flick (mice [5]): ~2 times; Times more potent than 14-OMC, PPQ (mice [6]; s.c.): 72 times; Times more potent than analogue 3, PPQ (mice [6]; s.c.): ~37 times; Times more active than oxycodone (antinociceptive potency) (mice [6]; s.c.): up to 165 times
2 | COc1ccc2c3c1O[C@H]1C(=O)CC[C@@]4(OC)[C@@H](C2)N(C)CC[C@]314 [14-OMC, 14-O-methyloxycodone, reference compound] | 35.3 ± 2.1 nM | 116 ± 15 nM | 3 | 454 ± 6 nM | 13 | 1.02 mg/kg | 0.8 mg/kg | 0.22 mg/kg | 325 ± 94 nM | 137 ± 55% | 973 ± 204 nM |  | 72 ± 7% |  |  |  |  |  | 
3 | COc1ccc2c(c1O)C13C=C(C#N)CCC1(OC)C(C2)N(C)CC3 (stereo not shown) [compound 3] |  |  |  |  |  |  |  |  | 26.2 ± 1.7 nM | 85 ± 3% | 140 ± 21 nM | up to 10 times | 61 ± 6% | 197 ± 29 nM | 378 ± 155 nM | 0.25 (0.11-0.59) mg/kg, s.c. | 0.21 (0.11-0.40) mg/kg, s.c. | 0.11 (0.072-0.16) mg/kg, s.c. | Ki (MOP receptor [9]): 5.38 ± 0.42 nM; Selectivity ratio DOP/MOP (DOP receptor [10]): 37; Selectivity ratio KOP/MOP (KOP receptor [11]): 70
4 | COc1ccc2c(c1OC)C13C=C(C#N)C=CC1(OC)C(C2)N(C)CC3 (stereo not shown) [compound 5] | 0.54 ± 0.04 nM | 30.3 ± 2.9 nM | 56 | 200 ± 40 nM | 370 | 0.08 mg/kg | 0.04 mg/kg | 0.0023 mg/kg | 1.64 ± 0.19 nM | 133 ± 7% | 21.7 ± 5.5 nM |  | 70 ± 8% |  |  |  |  |  | Ki [15]: 0.7 nM; Ki [16]: 56 nM; MOP selectivity vs. DOP ([16]; recombinant receptors, C6rDOP vs C6rMOP): 80 times; Ki [17]: 229 nM; MOP selectivity vs. KOP ([17]; recombinant receptors, CHOhKOP vs C6rMOP): 327 times; Times more active than oxycodone (antinociceptive potency) (mice [6]; s.c.): up to 165 times; Times more potent than DAMGO, calcium mobilization (human MOP receptors [8]; CHOhMOP Gαqi5 cells): about 2 times
5 | COc1ccc2c(c1OC)C13C=C(C(N)=O)CCC1(OC)C(C2)N(C)CC3 (stereo not shown) [compound 4] | 1.61 ± 0.05 nM | 28.8 ± 2.3 nM | 18 | 105 ± 45 nM | 65 | 1.3 mg/kg | 1.34 mg/kg | 0.18 mg/kg | 25.6 ± 9.5 nM | 107 ± 26% | 56.1 ± 11.3 nM |  | 59 ± 8% |  |  |  |  |  | Times less active than compound 1, hot-plate (mice [4]): about 3 times
6 | COc1ccc2c(c1OC)C13C=C(C#N)CCC1(O)C(C2)N(C)CC3 (stereo not shown) [compound 2] |  |  |  |  |  |  |  |  | 42.5 ± 14.9 nM | 97 ± 15% | 116 ± 9 nM | up to 10 times | 69 ± 7% | 107 ± 5 nM | 364 ± 7 nM | 0.15 (0.054-0.41) mg/kg, s.c. | 0.12 (0.061-0.23) mg/kg, s.c. | 0.026 (0.012-0.055) mg/kg, s.c. | Ki (MOP receptor [9]): 2.44 ± 0.13 nM; Selectivity ratio DOP/MOP (DOP receptor [10]): 44; Selectivity ratio KOP/MOP (KOP receptor [11]): 149
7 | COc1ccc2c3c1O[C@H]1C(=O)CC[C@@]4(O)[C@@H](C2)N(C)CC[C@]314 [Oxycodone, oxycodone, reference compound] |  |  |  |  |  |  |  |  |  | 92 ± 9% |  |  | 38 ± 3% |  |  | 1.37 (0.48-3.92) mg/kg, s.c. | 0.94 (0.40-2.30) mg/kg, s.c. | 0.38 (0.19-0.75) mg/kg, s.c. | EC50 [18]: 1400 nM; EC50 [19]: 373 nM; Efficacy, changes in intracellular calcium levels (human MOP receptor): 100%; EC50 (human MOP receptor; read-out: Potency, changes in intracellular calcium levels): 1740 nM
8 | COC12CCC(=O)C3Oc4c(O)ccc5c4C31CCN(C)C2C5 (stereo not shown) [14-O-methyloxymorphone] |  |  |  |  |  |  |  |  |  |  |  |  |  |  |  |  |  |  | Times increased binding affinity at the MOP receptor vs oxymorphone (MOP receptor [20]): 9 times; Times more potent in inducing an antinociceptive effect than oxymorphone (animals): up to 40 times
9 | COc1ccc2c(c1O)C13C=C(C#N)CCC1(O)C(C2)N(C)CC3 (stereo not shown) [compound 1] |  |  |  |  |  |  |  |  | 273 ± 24 nM | 98 ± 4% | 957 ± 233 nM | up to 10 times | 57 ± 4% | 498 ± 79 nM | 1650 nM | 0.50 (0.12-2.02) mg/kg, s.c. | 1.88 (1.25-2.83) mg/kg, s.c. | 0.18 (0.076-0.42) mg/kg, s.c. | 
10 | C[C@@H](NC(=O)[C@@H](N)Cc1ccc(O)cc1)C(=O)NCC(=O)N(C)[C@@H](Cc1ccccc1)C(=O)NCCO [DAMGO, [D-Ala^2,Me-Phe^4,Gly-ol^5]enkephalin, reference compound] |  |  |  |  |  |  |  |  |  |  |  |  |  |  |  |  |  |  | Maximal DAMGO stimulation in [35S]GTPγS functional assay (human MOP receptors [7]; [21]): 225 ± 32%; Maximal DAMGO stimulation in calcium mobilization assay (human MOP receptors [8]; [21]): 217 ± 21%
